The target of one data set is T1, BCL-2 (Homo sapiens, UniProt P10415).
T1 construct: purchased BPS Bioscience #50222
Nature of the data set: BCL-2 TR-FRET Assay (primary PPI inhibition). It counts as binding. As to conditions: 60 min incubation; read-out: BCL2 (IC50 code, BCL-2 TR-FRET).

The target in the next data set is T2, BCL-XL (Homo sapiens, UniProt Q07817).
T2 construct: purchased BPS Bioscience #50223
Nature of the data set: BCL-XL TR-FRET Assay (primary PPI inhibition). Particulars: 60 min incubation; read-out: BCLxL (IC50 code, BCL-XL TR-FRET). The format is binding. The essentials:
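TR-FRET readout (ex 340 nm; em 620/665 nm; 60 μs delay, 500 μs integration) after a 60 min incubation. Mix: compound, 10.5 ng BCL-XL, BCL-XL peptide ligand at 1:80, plus anti-His Tb donor and dye acceptor each at 1:100.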

The test system of the next data set is RS4-11 cells. Nature of the data set: Cell viability assay RS4-11 (CellTiter-Glo). The format is cell-based. As to conditions: Homo sapiens, read-out: RS4-11 (CC50 code). Summed up: (§1)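 Cells were seeded at 2000/well (HEK293, in DMEM, pre-incubated a day) or 4000/well (other lines, in RPMI-1640). Serially diluted compound was added and plates incubated 3 days at 37 °C, with viability read by CellTiter-Glo luminescence.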

In the next data set the test system is MOLT-4 cells. Nature of the data set: Cell viability assay MOLT-4 (CellTiter-Glo). It counts as cell-based. As to conditions: Homo sapiens, read-out: MOLT-4 (CC50 code). The essentials:
as §1

Data set [1] in a line: Cell viability assay HEK293 (CellTiter-Glo). The format is cell-based. As to conditions: human, HEK293 cells, read-out: HEK293 (CC50 code). The essentials:
as §1

Data set [2] concerns caspase-3 and -7 activities in RS4-11 cells. Nature of the data set: Cas-3/7 activation (Caspase-Glo 3/7) in RS4-11 cells. Particulars: Homo sapiens, 3.5 h at 37° C. and 30 min at r.t., read-out: Cas-3/7 (EC50 code). The format is cell-based. The procedure: Assay Principle: The Caspase-Glo 3/7 Assay is homogeneous, luminescent assay that measures caspase-3 and -7 activities. The assay provides a luminogenic caspase-3/7 substrate, which contains the tetrapeptide sequence DEVD, in a reagent optimized for caspase activity.
Assay Procedure: Incubate RS4-11 cells with varying concentrations of test compounds for 3.5 h in a humidified incubator at 37° C. and 5% CO2 and 30 min at r.t. Add 15 μl Caspase-Glo reagent to each well and incubate the plate for 30 min at r.t. Read on ClarioStar Plus instrument.
Materials: Promega Caspase-Glo (Promega, #8212); Frozen RS4-11 cells; 384-well white plate (Corning, #3570).
Instrumentation: ClarioStar Plus; Biomek FX for liquid handling (Beckman Coulter).

The mark [3] stands for this setting: 72 h, RS4-11 cells, 3 days, CellTiter-Glo.
The mark [4] stands for this setting: 72 h, MOLT-4 cells, 3 days, CellTiter-Glo.

Like-named read-outs stand apart in the source and are kept apart here.

This note sets out measurements from US11834450B2, “Compounds having ((3-nitrophenyl)sulfonyl)acetamide as BCL-2 inhibitors” (Eil Therapeutics, Inc., priority 2021, dated 2023).

T1 sequence (P10415 whole entry): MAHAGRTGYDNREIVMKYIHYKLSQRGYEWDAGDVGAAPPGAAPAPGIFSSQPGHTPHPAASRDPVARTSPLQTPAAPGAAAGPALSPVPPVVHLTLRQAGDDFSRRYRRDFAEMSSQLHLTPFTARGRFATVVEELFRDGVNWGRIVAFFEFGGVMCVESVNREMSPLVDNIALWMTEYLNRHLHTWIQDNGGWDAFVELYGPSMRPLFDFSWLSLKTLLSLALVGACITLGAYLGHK
T2 sequence (Q07817 whole entry): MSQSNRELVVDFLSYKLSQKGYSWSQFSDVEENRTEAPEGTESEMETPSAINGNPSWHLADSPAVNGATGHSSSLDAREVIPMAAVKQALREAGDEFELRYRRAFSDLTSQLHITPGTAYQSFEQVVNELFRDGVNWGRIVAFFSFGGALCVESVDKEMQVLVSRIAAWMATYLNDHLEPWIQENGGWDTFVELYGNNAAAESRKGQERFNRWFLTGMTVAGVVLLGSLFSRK

Consider `O=C(NS(=O)(=O)c1ccc(NCC2CCOCC2)c([N+](=O)[O-])c1)c1ccc(N2CCN(CC(c3ccccc3)c3ccccc3)CC2)cc1Oc1cnc2[nH]ccc2c1` [Compound 4, 4-[4-(2,2-diphenylethyl)piperazin-1-yl]-N-[3-nitro-4-(tetrahydropyran-4-ylmethylamino)phenyl]sulfonyl-2-(1H-pyrrolo[2,3-b]pyridin-5-yloxy)benzamide], for which the concentration for half-maximal inhibition (IC50) was greater than 0.05 µM at BCL-2 and greater than 4 µM at BCL-XL. Further, the CC50 in the data set with RS4-11 cells (setting [3]) is greater than 0.2 µM; in the data set with MOLT-4 cells (setting [4]), 2 to 10 µM. Further, the CC50 at 3 days in data set [1] was greater than 25 µM. Also, in data set [2], the EC50 was greater than 0.25 µM.
Take `O=C(NS(=O)(=O)c1ccc(NCC2CCOCC2)c([N+](=O)[O-])c1)c1ccc(N2CCN(C[C@@H]3Cc4ccccc4CN3C(=O)C3CC3)CC2)cc1Oc1cnc2[nH]ccc2c1` [Compound 5, 4-[4-[[(3S)-2-(cyclopropanecarbonyl)-3,4-dihydro-1H-isoquinolin-3-yl]methyl]piperazin-1-yl]-N-[3-nitro-4-(tetrahydropyran-4-ylmethylamino)phenyl]sulfonyl-2-(1H-pyrrolo[2,3-b]pyridin-5-yloxy)benzamide]: the figures for the IC50 at BCL-2 and on BCL-XL were 0.01 to 0.05 µM and no more than 2 µM, respectively. The cytotoxic concentration (CC50) with RS4-11 cells (setting [3]) is greater than 0.2 µM; in the data set with MOLT-4 cells (setting [4]), 2 to 10 µM. Moreover, in data set [1], the half-maximal cytotoxic concentration (CC50) at 3 days was greater than 25 µM. Also, the EC50 in data set [2] was greater than 0.25 µM.
For the molecule `O=C(NS(=O)(=O)c1ccc(NCC2CCOCC2)c([N+](=O)[O-])c1)c1ccc(N2CCN(CC3Cc4ccccc4CN3C(=O)c3cccs3)CC2)cc1Oc1cnc2[nH]ccc2c1` (stereo not drawn) [Compound 6, N-[3-nitro-4-(tetrahydropyran-4-ylmethylamino)phenyl]sulfonyl-2-(1H-pyrrolo[2,3-b]pyridin-5-yloxy)-4-[4-[[2-(thiophene-2-carbonyl)-3,4-dihydro-1H-isoquinolin-3-yl]methyl]piperazin-1-yl]benzamide], the half-maximal inhibitory concentration (IC50) on BCL-2 is greater than 0.05 µM; on BCL-XL, no more than 2 µM. For the same molecule, the half-maximal cytotoxic concentration (CC50) is greater than 0.2 µM in the data set on RS4-11 cells (setting [3]) and 2 to 10 µM with MOLT-4 cells (setting [4]). Also, the CC50 at 3 days in data set [1] was greater than 25 µM. Also, in data set [2], the EC50 is greater than 0.25 µM.
As for `O=C(NS(=O)(=O)c1ccc(NCC2CCOCC2)c([N+](=O)[O-])c1)c1ccc(N2CCN(CC(O)(c3ccccc3)c3ccccc3)CC2)cc1Oc1cnc2[nH]ccc2c1` [Compound 7, 4-[4-(2-hydroxy-2,2-diphenyl-ethyl)piperazin-1-yl]-N-[3-nitro-4-(tetrahydropyran-4-ylmethylamino)phenyl]sulfonyl-2-(1H-pyrrolo[2,3-b]pyridin-5-yloxy)benzamide], the 50% inhibitory concentration (IC50) was 0.01 to 0.05 µM on BCL-2 and greater than 4 µM at BCL-XL. For the same molecule, the CC50 in the data set on RS4-11 cells (setting [3]) was greater than 0.2 µM; in the data set on MOLT-4 cells (setting [4]) it was 2 to 10 µM. Further, the 50% cytotoxic concentration (CC50) at 3 days in data set [1] is greater than 25 µM. Besides, in data set [2], the EC50 is greater than 0.25 µM.
As to `CC(C)C(=O)N1Cc2ccccc2C[C@H]1CN1CCN(c2ccc(C(=O)NS(=O)(=O)c3ccc(NCC4CCOCC4)c([N+](=O)[O-])c3)c(Oc3cnc4[nH]ccc4c3)c2)CC1` [Compound 8, 4-[4-[[2-(2-methylpropanoyl)-3,4-dihydro-1H-isoquinolin-3-yl]methyl]piperazin-1-yl]-N-[3-nitro-4-(tetrahydropyran-4-ylmethylamino)phenyl]sulfonyl-2-(1H-pyrrolo[2,3-b]pyridin-5-yloxy)benzamide], the IC50 was greater than 0.05 µM at BCL-2 and no more than 2 µM on BCL-XL. For the same molecule, the values for the 50% cytotoxic concentration (CC50) with RS4-11 cells (setting [3]) and in the data set with MOLT-4 cells (setting [4]) were greater than 0.2 µM and 2 to 10 µM, respectively. For the same molecule, in data set [1], the half-maximal cytotoxic concentration (CC50) at 3 days was greater than 25 µM. Besides, the EC50 in data set [2] is greater than 0.25 µM.
Regarding `O=C(NS(=O)(=O)c1ccc(NCC2CCOCC2)c([N+](=O)[O-])c1)c1ccc(N2CCC(CN3C(=O)C4(CCCC4)C3c3cncc(Cl)c3)CC2)cc1Oc1cnc2[nH]ccc2c1` (stereo not drawn) [Compound 9, 4-[4-[[1-(5-chloro-3-pyridyl)-3-oxo-2-azaspiro[3.4]octan-2-yl]methyl]-1-piperidyl]-N-[3-nitro-4-(tetrahydropyran-4-ylmethylamino)phenyl]sulfonyl-2-(1H-pyrrolo[2,3-b]pyridin-5-yloxy)benzamide], the IC50 on BCL-2 is greater than 0.05 µM; at BCL-XL, 2 to 4 µM. The CC50 with RS4-11 cells (RS4-11, 72 h) is greater than 0.2 µM; in the data set on MOLT-4 cells (MOLT-4, 72 h) it was 2 to 10 µM. Moreover, in data set [1], the CC50 at 3 days is greater than 25 µM. Also, the EC50 in data set [2] is greater than 0.25 µM.
Regarding `O=C(NS(=O)(=O)c1ccc(NCC2CCOCC2)c([N+](=O)[O-])c1)c1ccc(N2CCN(CC(O)(c3ccccc3)c3ccc(F)c(F)c3)CC2)cc1Oc1cnc2[nH]ccc2c1` (stereo not drawn) [Compound 11, 4-[4-[2-(3,4-difluorophenyl)-2-hydroxy-2-phenyl-ethyl]piperazin-1-yl]-N-[3-nitro-4-(tetrahydropyran-4-ylmethylamino)phenyl]sulfonyl-2-(1H-pyrrolo[2,3-b]pyridin-5-yloxy)benzamide], the values for the IC50 on BCL-2 and on BCL-XL were greater than 0.05 µM and greater than 4 µM, respectively. Besides, the CC50 with RS4-11 cells (setting [3]) was greater than 0.2 µM; in the data set with MOLT-4 cells (setting [4]), 2 to 10 µM. In addition, the half-maximal cytotoxic concentration (CC50) at 3 days in data set [1] is greater than 25 µM. Also, the EC50 in data set [2] was greater than 0.25 µM.
`O=C(NS(=O)(=O)c1ccc(NCC2CCOCC2)c([N+](=O)[O-])c1)c1ccc(N2CCN(CC(c3ccccc3)c3ccc(F)c(F)c3)CC2)cc1Oc1cnc2[nH]ccc2c1` (stereo not drawn) [Compound 13, 4-[4-[2-(3,4-difluorophenyl)-2-phenyl-ethyl]piperazin-1-yl]-N-[3 nitro-4-(tetrahydropyran-4-ylmethylamino)phenyl]sulfonyl-2 (1H-pyrrolo[2,3-b]pyridin-5-yloxy)benzamide]: the figures for the IC50 on BCL-2 and at BCL-XL were greater than 0.05 µM and greater than 4 µM, respectively. Besides, the results for the CC50 in the data set on RS4-11 cells (setting [3]) and in the data set with MOLT-4 cells (setting [4]) were greater than 0.2 µM and less than 2 µM, respectively. In data set [1], the 50% cytotoxic concentration (CC50) at 3 days was no more than 10 µM. The EC50 in data set [2] was greater than 0.25 µM.
For `O=C(NS(=O)(=O)c1ccc(NCC2CCOCC2)c([N+](=O)[O-])c1)c1ccc(N2CCN(CC3Cc4ccc(Cl)cc4CN3C(=O)C3CC3)CC2)cc1Oc1cnc2[nH]ccc2c1` (stereo not drawn) [Compound 20, 4-[4-[[7-chloro-2-(cyclopropanecarbonyl)-3,4-dihydro-1H-isoquinolin-3-yl]methyl]piperazin-1-yl]-N-[3-nitro-4-(tetrahydropyran-4-ylmethylamino)phenyl]sulfonyl-2-(1H-pyrrolo[2,3-b]pyridin-5-yloxy)benzamide], the values for the 50% inhibitory concentration (IC50) at BCL-2 and at BCL-XL were greater than 0.05 µM and greater than 4 µM, respectively. Moreover, the values for the 50% cytotoxic concentration (CC50) in the data set on RS4-11 cells (setting [3]) and with MOLT-4 cells (setting [4]) were greater than 0.2 µM and 2 to 10 µM, respectively. The cytotoxic concentration (CC50) at 3 days in data set [1] was greater than 25 µM. In data set [2], the EC50 was greater than 0.25 µM.
As to `O=C(NS(=O)(=O)c1ccc(NCC2CCOCC2)c([N+](=O)[O-])c1)c1ccc(N2CCN(CC3Cc4cc(Cl)ccc4CN3C(=O)C3CC3)CC2)cc1Oc1cnc2[nH]ccc2c1` (stereo not drawn) [Compound 22, 4-[4-[[6-chloro-2-(cyclopropanecarbonyl)-3,4-dihydro-1H-isoquinolin-3-yl]methyl]piperazin-1-yl]-N-[3-nitro-4-(tetrahydropyran-4-ylmethylamino)phenyl]sulfonyl-2-(1H-pyrrolo[2,3-b]pyridin-5-yloxy)benzamide], the results for the IC50 on BCL-2 and on BCL-XL were greater than 0.05 µM and greater than 4 µM, respectively. Also, the values for the 50% cytotoxic concentration (CC50) in the data set with RS4-11 cells (setting [3]) and in the data set with MOLT-4 cells (setting [4]) were greater than 0.2 µM and 2 to 10 µM, respectively. In data set [1], the CC50 at 3 days is greater than 25 µM. Moreover, the EC50 in data set [2] was greater than 0.25 µM.
